Measurements from patent publication US6297247A, “Sulfonamide inhibitors of matrix metalloproteinases” (priority 2000, dated 2001).
Where a name gives a salt, the structure may show the parent alone.

Experiments:
[1] = target: T1, SCD (stromelysin-1 catalytic domain) (Homo sapiens, UniProt P08254); assay: Inhibition of stromelysin-1 catalytic domain (SCD), thiopeptolide substrate; format: biochemical; settings: thiopeptolide substrate Ac-Pro-Leu-Gly-thioester-Leu-Leu-Gly-OEt
T1 construct: SCD (stromelysin-1 catalytic domain)
Protocol: IC50 values were determined using a thiopeptolide substrate, Ac-Pro-Leu-Gly-thioester-Leu-Leu-Gly-OEt (Ye Q.-Z., Johnson L. L., Hupe D. J. and Baragi V., "Purification and Characterization of the Human Stromelysin Catalytic Domain Expressed in Escherichia coli", Biochemistry,1992;31:11231-11235).

[2] = target: GCD (recombinant gelatinase A catalytic domain); assay: Inhibition of recombinant gelatinase A catalytic domain (GCD), thiopeptolide substrate; format: biochemical; settings: thiopeptolide substrate Ac-Pro-Leu-Gly-thioester-Leu-Leu-Gly-OEt
[3] = tested on: bovine nasal cartilage; settings: cited from earlier work
[4] = tested on: pig articular cartilage; settings: cited from earlier work
[5] = tested on: experimental allergic encephalomyelitis (EAE); settings: in vivo; cited from earlier work

T1 sequence (P08254 100-272 limits assumed): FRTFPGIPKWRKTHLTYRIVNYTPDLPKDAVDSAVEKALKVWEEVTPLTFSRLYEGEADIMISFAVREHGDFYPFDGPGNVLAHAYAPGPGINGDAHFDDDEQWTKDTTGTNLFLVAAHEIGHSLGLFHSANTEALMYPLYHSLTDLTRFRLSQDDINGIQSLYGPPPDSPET

Q: What does the source list for `CC(C)C[C@@H](NS(=O)(=O)c1ccc(N2CCC(c3ccccc3)CC2)cc1)C(=O)O` [Example 4, (R)-4-Methyl-2-[4-(4-phenyl-piperidin-1-yl)-benzenesulfonylamino]-pentanoic acid]?
A: IC50 [1]: 0.036 µM; IC50 [2]: 0.93 µM

Q: Which results are given for `O=C(O)[C@H](Cc1ccc(O)cc1)NS(=O)(=O)c1ccc(N2CCC(c3ccccc3)CC2)cc1` [Example 14, (S)-3-(4-Hydroxy-phenyl)-2-[4-(4-phenyl-piperidin-1-yl)-benzenesulfonylamino]-propionic acid]?
A: IC50 [1]: 0.015 µM; IC50 [2]: 0.13 µM

Q: Which IC50 [1] does the source give for `COc1cccc(N2CCN(c3ccc(S(=O)(=O)N[C@@H](Cc4ccccc4)C(=O)O)cc3)CC2)c1` [Example 16, (S)-2-{4-[-4-(3-Methoxy-phenyl)-piperazin-1-yl]-benzenesulfonylamino}-3-phenyl-propionic acid] here?
A: 0.062 µM

Q: What about the IC50 [2] of the same compound?
A: 0.33 µM

Q: For `CC(C)C[C@H](NS(=O)(=O)c1ccc(N2CCC(c3ccccc3)CC2)cc1)C(=O)O` [Example 5, (S)-4-Methyl-2-[4-(4-phenyl-piperidin-1-yl)-benzenesulfonylamino]-pentanoic acid], which IC50 [1] is on record?
A: 0.011 µM

Q: And the IC50 [2]?
A: 0.084 µM

Q: For `COc1ccc(N2CCN(c3ccc(S(=O)(=O)N[C@@H](Cc4ccccc4)C(=O)O)cc3)CC2)cc1` [Example 18, (S)-2-{4-[-4-(4-Methoxy-phenyl)-piperazin-1-yl]-benzenesulfonylamino}-3-phenyl-propionic acid], which IC50 [2] is on record?
A: 0.033 µM

Q: Which IC50 [1] does the source give for `O=C(O)[C@H](Cc1ccccc1)NS(=O)(=O)c1ccc(N2CCN(c3cccc(O)c3)CC2)cc1` [Example 17, (S)-2-{4-[-4-(3-Hydroxy-phenyl)-piperazin-1-yl]-benzenesulfonylamino}-3-phenyl-propionic acid hydrobromide] here?
A: 0.077 µM

Q: What about the IC50 [2] of the same compound?
A: 0.18 µM

Q: Which results are given for “TIMP-1: natural endogenous inhibitors of MMPs (TIMPS)”?
A: formation of collagen fragments and proteoglycan fragments [3]: prevented the formation of collagen fragments, but not proteoglycan fragments; formation of collagen fragments and proteoglycan fragments [4]: prevented the formation of collagen fragments, but not proteoglycan fragments

Q: Which IC50 [2] does the source give for `O=C(O)CNS(=O)(=O)c1ccc(N2CCC(c3ccccc3)CC2)cc1` [Example 1, [4-(4-Phenyl-piperidin-1-yl)-benzenesulfonylamino]-acetic acid] here?
A: 0.21 µM

Q: With `CNC(=O)[C@H](Cc1c[nH]c2ccccc12)NC(=O)[C@@H](CC(=O)NO)CC(C)C` [GM6001] as the compound, how does the “development or clinical expression of EAE” value [5] read?
A: suppressed the development or reversed the clinical expression of experimental allergic encephalomyelitis (EAE) in a dose dependent manner

Q: With `O=C(O)[C@H](Cc1ccc(OCc2ccccc2)cc1)NS(=O)(=O)c1ccc(N2CCC(c3ccccc3)CC2)cc1` [Example 13, (S)-3-(4-Benzyloxy-phenyl)-2-[4-(4-phenyl-piperidin-1-yl)-benzenesulfonylamino]-propionic acid] as the compound, how does the IC50 [1] read?
A: 0.19 µM

Q: What about the IC50 [2] of the same compound?
A: 5.3 µM

Q: What does the source list for `O=C(O)CNS(=O)(=O)c1ccc(N2CCN(c3ccccc3)CC2)cc1` [Example 10, [4-(4-Phenyl-piperazin-1-yl)-benzenesulfonylamino]-acetic acid]?
A: IC50 [1]: 0.05 µM; IC50 [2]: 0.5 µM

Q: For `O=C(O)[C@H](Cc1ccccc1)NS(=O)(=O)c1ccc(N2CCC(Cc3ccccc3)CC2)cc1` [Example 12, (S)-2-[4-(4-Benzyl-piperidin-1-yl)-benzenesulfonylamino]-3-phenyl-propionicacid], which IC50 [1] is on record?
A: 0.6 µM

Q: And the IC50 [2]?
A: 3.2 µM

Q: Which IC50 [2] does the source give for `O=C(CNS(=O)(=O)c1ccc(N2CCC(c3ccccc3)CC2)cc1)NO` [Example 2, N-Hydroxy-2-[4-(4-phenyl-piperidin-1-yl)-benzenesulfonylamino]-acetamide] here?
A: 0.81 µM

Q: With `O=C(O)[C@H](Cc1ccccc1)NS(=O)(=O)c1ccc(N2CCC(c3ccccc3)CC2)cc1` [Example 6, (S)-3-Phenyl-2-[4-(4-phenyl-piperidin-1-yl)-benzenesulfonylamino]-propionic acid] as the compound, how does the IC50 [2] read?
A: 0.22 µM

Q: For `O=C(O)[C@H](Cc1c[nH]c2ccccc12)NS(=O)(=O)c1ccc(N2CCC(c3ccccc3)CC2)cc1` [Example 8, (S)-3-(1H-Indol-3-yl)-2-[4-(4-phenyl-piperidin-1-yl)-benzenesulfonylamino]-propionic acid], which IC50 [1] is on record?
A: 0.01 µM

Q: And the IC50 [2]?
A: 0.32 µM

Q: For `CC(C)CN(CC(=O)O)S(=O)(=O)c1ccc(N2CCC(c3ccccc3)CC2)cc1` [Example 11, {Isobutyl-[4-(4-phenyl-piperidin-1-yl)-benzenesulfonyl]amino}-acetic acid], which IC50 [1] is on record?
A: 0.17 µM

Q: And the IC50 [2]?
A: 3.3 µM

Q: What does the source list for `O=C(O)[C@@H](Cc1ccccc1)NS(=O)(=O)c1ccc(N2CCC(c3ccccc3)CC2)cc1` [Example 7, (R)-3-Phenyl-2-[4-(4-phenyl-piperidin-1-yl)-benzenesulfonylamino]-propionic acid]?
A: IC50 [1]: 0.012 µM; IC50 [2]: 0.12 µM

Q: What does the source list for `O=C(O)C(CCCc1ccccc1)NS(=O)(=O)c1ccc(N2CCC(c3ccccc3)CC2)cc1` (racemic) [Example 9, (±)-5-Phenyl-2-[4-(4-phenyl-piperidin-1-yl)-benzenesulfonylamino]-pentanoic acid]?
A: IC50 [1]: 0.3 µM; IC50 [2]: 0.4 µM

Q: For `O=C(O)[C@H](Cc1ccccc1)NS(=O)(=O)c1ccc(N2CCN(c3ccccc3)CC2)cc1` [Example 15, (S)-3-Phenyl-2-[4-(4-phenyl-piperazin-1-yl)-benzenesulfonylamino]-propionicacid], which IC50 [1] is on record?
A: 0.021 µM

Q: And the IC50 [2]?
A: 0.088 µM

Q: With `O=C(O)CCNS(=O)(=O)c1ccc(N2CCC(c3ccccc3)CC2)cc1` [Example 3, 3-[4-(4-Phenyl-piperidin-1-yl)-benzenesulfonylamino]-propionic acid] as the compound, how does the IC50 [1] read?
A: 1.24 µM

Q: What about the IC50 [2] of the same compound?
A: 4.8 µM
